Results from ChEMBL document CHEMBL1201862, “PubChem BioAssay data set” (2004).
Active and inactive are the calls of the source.

Columns and labels:
[1] = biological target: T1, Calpain-2 catalytic subunit (Sus scrofa, UniProt P43367); experiment: pig calpain II inhibitor potency, dose response, biochemical, fluorogenic peptide substrate (AID 1420); assay type: functional
T1 sequence (P43367 whole entry): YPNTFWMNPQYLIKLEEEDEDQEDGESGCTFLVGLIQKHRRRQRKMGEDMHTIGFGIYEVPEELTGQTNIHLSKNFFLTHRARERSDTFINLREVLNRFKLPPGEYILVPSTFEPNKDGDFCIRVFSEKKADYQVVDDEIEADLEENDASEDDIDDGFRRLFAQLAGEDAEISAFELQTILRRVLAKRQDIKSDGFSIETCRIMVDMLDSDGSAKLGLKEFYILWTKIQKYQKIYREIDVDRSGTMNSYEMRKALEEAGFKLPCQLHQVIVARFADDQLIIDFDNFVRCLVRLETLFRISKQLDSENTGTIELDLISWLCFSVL

[2] = biological target: T2, Leucine aminopeptidase (Plasmodium falciparum 3D7, UniProt Q8IL11); experiment: P. falciparum M17LAP inhibitors, primary screen, biochemical, fluorogenic H-Leu-NHMec substrate, 1536-well (AID 1619); assay type: functional
T2 sequence (Q8IL11 whole entry): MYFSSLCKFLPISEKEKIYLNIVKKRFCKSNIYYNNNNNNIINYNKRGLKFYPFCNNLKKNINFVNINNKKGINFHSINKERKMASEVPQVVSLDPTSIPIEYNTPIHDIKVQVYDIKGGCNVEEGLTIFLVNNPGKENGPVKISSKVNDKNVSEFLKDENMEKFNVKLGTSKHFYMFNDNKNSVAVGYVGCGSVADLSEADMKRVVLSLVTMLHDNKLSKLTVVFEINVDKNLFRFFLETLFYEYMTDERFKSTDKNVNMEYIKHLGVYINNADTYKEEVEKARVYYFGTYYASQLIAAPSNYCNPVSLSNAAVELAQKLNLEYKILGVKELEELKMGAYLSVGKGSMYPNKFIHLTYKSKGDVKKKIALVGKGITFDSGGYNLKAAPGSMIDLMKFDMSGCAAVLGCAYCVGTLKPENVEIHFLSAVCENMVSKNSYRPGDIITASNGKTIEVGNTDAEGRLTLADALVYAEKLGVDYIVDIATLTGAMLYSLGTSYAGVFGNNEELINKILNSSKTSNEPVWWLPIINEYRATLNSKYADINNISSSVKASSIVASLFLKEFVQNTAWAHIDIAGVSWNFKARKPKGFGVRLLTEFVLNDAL

[3] = biological target: Cytochrome P450 2C19 (Homo sapiens, UniProt P33261); experiment: Cytochrome panel assay with activity outcomes. Panel member name: p450-cyp2c19 Compounds with AC50 equal or less than 10 uM are considered active; assay type: functional; conditions: read-out: AC50
[4] = biological target: Cytochrome P450 2D6 (Homo sapiens, UniProt P10635);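 further: CYP2D6 member of a cytochrome P450 panel assay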
[5] = biological target: Large T antigen (Simian virus 40, UniProt P03070); assay type: functional, Betapolyomavirus macacae;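 further: Confirmatory-stage PubChem screen for compounds that inhibit SV40 T antigen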
[6] = biological target: Nonstructural protein 1 (Influenza A virus, UniProt Q194T2); assay type: functional, Influenza A virus (A/California/07/2009(H1N1))
[7] = biological target: T3, Zinc finger protein mex-5 (Caenorhabditis elegans, UniProt Q9XUB2); experiment: MEX-5/TCR-2 RNA interaction inhibitors, dose response, biochemical, C. elegans, fluorescence polarization (AID 1960)
T3 sequence (Q9XUB2 whole entry): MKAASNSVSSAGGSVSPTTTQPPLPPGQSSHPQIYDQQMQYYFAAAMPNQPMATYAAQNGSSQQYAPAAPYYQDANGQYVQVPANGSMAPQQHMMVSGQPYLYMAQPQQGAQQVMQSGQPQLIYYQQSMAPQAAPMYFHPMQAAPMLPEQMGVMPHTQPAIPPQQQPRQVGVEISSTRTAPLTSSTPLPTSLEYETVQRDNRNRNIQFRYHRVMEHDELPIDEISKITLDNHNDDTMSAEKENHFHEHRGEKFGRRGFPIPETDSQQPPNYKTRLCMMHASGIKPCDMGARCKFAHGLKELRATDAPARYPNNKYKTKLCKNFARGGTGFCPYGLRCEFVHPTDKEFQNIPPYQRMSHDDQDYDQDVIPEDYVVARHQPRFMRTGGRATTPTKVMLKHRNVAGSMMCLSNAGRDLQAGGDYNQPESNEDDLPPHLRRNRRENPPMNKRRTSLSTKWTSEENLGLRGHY

[8] = cytotoxicity toward NIH3T3 fibroblasts, dose response, counter-screen, cell-based, ATP luminescence, mouse fibroblasts (AID 2010); assay type: functional;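 further: cells exposed to compound for about 90 hours before reading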
[9] = inhibitors of intracellular T. cruzi replication, confirmation, NIH3T3 host cells, beta-gal luminescence (AID 2044); assay type: functional, cell-based;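 further: intracellular parasites grown in NIH/3T3 mouse fibroblasts as host cells; luminescent beta-galactosidase reporter signal from transgenic T. cruzi replicating inside host cells; inhibitors lower the luminescence signal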
[10] = biological target: T4, Protein skinhead-1 (Caenorhabditis elegans, UniProt P34707); assay type: functional
T4 sequence (P34707 whole entry): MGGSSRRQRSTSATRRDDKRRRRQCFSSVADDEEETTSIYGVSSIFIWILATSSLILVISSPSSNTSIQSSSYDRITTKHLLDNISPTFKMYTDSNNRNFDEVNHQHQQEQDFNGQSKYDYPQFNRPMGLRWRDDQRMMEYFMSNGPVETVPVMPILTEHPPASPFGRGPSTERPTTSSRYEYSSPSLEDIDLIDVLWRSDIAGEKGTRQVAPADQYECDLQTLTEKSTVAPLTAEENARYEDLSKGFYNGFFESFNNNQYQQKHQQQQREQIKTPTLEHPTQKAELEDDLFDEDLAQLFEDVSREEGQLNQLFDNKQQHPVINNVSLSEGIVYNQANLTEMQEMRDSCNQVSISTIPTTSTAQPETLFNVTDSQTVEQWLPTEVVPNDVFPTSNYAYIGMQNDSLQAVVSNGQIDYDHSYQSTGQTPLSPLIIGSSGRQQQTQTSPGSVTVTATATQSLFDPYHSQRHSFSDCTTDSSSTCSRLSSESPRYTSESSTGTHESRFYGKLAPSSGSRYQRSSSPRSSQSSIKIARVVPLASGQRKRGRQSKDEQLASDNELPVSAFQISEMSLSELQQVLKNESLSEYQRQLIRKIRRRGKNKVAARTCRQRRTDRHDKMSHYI

[11] = biological target: T5, RNA-binding protein pos-1 (Caenorhabditis elegans, UniProt G5EF15); experiment: inhibitors of POS-1/mex-3 RNA binding, dose response, biochemical, fluorescence polarization (AID 1964);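 further: purified POS-1 fused to maltose binding protein made in E. coli; potency of compounds blocking POS-1 binding to fluorescent RNA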
T5 sequence (G5EF15 whole entry): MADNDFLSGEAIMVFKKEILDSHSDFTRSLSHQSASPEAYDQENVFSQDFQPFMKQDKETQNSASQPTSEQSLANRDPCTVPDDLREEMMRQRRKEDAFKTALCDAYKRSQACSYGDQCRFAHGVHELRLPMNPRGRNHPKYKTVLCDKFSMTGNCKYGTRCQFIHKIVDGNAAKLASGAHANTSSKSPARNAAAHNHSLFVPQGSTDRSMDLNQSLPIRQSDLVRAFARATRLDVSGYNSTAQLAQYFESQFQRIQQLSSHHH

[12] = biological target: FAD-linked sulfhydryl oxidase ALR (Homo sapiens, UniProt P55789); experiment: inhibitors of human ALR sulfhydryl oxidase, dose response, biochemical, H2O2 detection, luminescence, cherry-pick (AID 493248)
FAD-linked sulfhydryl oxidase ALR, sequence (P55789 whole entry): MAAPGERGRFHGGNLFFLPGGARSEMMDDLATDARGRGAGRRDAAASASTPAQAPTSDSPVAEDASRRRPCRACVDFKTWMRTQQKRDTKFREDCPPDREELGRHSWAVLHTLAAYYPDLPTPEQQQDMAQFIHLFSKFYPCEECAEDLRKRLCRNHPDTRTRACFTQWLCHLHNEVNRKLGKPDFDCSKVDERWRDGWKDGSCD

Large T antigen, sequence (P03070 whole entry): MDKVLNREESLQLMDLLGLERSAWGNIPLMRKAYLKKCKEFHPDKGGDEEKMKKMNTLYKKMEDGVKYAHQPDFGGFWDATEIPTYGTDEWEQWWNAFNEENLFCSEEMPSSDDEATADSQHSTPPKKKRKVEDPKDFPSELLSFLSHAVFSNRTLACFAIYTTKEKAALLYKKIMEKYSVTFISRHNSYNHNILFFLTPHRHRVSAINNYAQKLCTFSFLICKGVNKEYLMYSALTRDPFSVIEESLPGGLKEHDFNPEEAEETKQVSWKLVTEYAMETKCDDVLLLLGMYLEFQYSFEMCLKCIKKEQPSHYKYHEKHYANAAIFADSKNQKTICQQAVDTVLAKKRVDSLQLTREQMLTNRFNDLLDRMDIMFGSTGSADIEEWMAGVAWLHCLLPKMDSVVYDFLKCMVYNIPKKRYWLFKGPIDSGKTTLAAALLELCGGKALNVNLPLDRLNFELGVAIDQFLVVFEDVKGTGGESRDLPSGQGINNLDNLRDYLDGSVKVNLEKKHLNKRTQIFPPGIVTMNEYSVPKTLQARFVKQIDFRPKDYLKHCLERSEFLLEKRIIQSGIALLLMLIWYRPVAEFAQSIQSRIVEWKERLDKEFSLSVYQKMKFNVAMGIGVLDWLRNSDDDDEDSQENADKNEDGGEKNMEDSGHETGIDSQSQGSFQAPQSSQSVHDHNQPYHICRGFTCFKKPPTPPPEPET
Cytochrome P450 2C19, sequence (P33261 whole entry): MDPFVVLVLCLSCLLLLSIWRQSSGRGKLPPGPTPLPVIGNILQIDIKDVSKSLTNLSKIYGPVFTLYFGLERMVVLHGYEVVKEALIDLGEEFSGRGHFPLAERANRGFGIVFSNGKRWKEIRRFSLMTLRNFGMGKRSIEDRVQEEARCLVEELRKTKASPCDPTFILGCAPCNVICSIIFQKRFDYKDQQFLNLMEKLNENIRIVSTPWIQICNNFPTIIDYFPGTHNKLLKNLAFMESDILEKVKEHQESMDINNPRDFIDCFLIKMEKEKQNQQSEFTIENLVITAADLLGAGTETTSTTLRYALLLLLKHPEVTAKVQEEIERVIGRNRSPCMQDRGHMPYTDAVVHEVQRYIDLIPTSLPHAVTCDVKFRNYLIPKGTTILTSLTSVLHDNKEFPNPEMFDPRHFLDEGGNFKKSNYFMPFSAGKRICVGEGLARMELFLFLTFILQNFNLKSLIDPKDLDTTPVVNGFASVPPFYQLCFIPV
Nonstructural protein 1, sequence (Q194T2 whole entry): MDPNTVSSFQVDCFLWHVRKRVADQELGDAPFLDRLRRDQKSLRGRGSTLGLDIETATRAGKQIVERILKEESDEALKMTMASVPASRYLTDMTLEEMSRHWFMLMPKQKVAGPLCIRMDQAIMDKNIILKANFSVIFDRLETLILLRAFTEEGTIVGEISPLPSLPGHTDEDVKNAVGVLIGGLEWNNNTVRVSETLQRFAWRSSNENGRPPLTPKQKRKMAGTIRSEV
Cytochrome P450 2D6, sequence (P10635 whole entry): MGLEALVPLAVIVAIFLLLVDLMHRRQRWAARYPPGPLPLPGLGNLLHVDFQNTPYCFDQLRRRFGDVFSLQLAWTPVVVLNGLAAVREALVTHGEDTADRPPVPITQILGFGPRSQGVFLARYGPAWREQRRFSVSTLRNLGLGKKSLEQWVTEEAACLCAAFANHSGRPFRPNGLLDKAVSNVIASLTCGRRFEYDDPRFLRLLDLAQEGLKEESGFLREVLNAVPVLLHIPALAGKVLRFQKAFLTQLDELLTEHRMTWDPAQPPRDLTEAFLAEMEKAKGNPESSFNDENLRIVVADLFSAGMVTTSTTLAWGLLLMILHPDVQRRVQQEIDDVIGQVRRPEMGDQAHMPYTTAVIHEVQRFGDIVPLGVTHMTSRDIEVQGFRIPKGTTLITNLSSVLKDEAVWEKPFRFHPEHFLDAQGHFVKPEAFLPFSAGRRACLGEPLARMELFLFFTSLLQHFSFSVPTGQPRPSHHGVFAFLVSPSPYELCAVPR

| Compound | IC50 [1] | IC50 [2] | further results |
| --- | --- | --- | --- |
| O=C(CCCOc1ccc(Cl)cc1Cl)N1CCc2ccccc2C1 | 7.32 µM (not active) |  |  |
| O=C(CN1C(=O)c2ccccc2S1(=O)=O)NC1CC2CCC1C2 (stereo not drawn) |  | 75.4 µM (active) |  |
| O=C(CSc1nc[nH]n1)Nc1nnc(-c2ccccc2)s1 |  | 43.1 µM (active) |  |
| CCOC(=O)c1c(NC(=O)C2C3CCC(O3)C2C(=O)O)sc(C)c1-c1ccc(F)cc1 (stereo not drawn) |  | 8.78 µM (active) |  |
| c1nc(NCc2ccc3c(c2)OCO3)n[nH]1 |  | 17.9 µM (active) |  |
| CN(C)c1ncc(S(=O)(=O)c2ccc(Cl)cc2)c(-c2ccccc2)n1 | 8.73 µM (not active) |  |  |
| CC(C)c1ccc(CNc2ccc([N+](=O)[O-])cn2)cc1 | 6.03 µM (active) |  |  |
| Cc1cc(C)nc(NS(=O)(=O)c2ccc(N/C=C3\CCCC3=O)cc2)n1 |  | 56.7 µM (active) |  |
| COCCSc1nnc(NC(=O)c2cc(C(=O)OC)cc([N+](=O)[O-])c2)s1 |  | 60.2 µM (active) |  |
| O=C(O)C1CCCCC1C(=O)Nc1cc(Cl)ccc1Cl (stereo not drawn) |  | 25 µM (active) | AC50 [3]: 25.1 µM (inconclusive) |
| CC(C)C[C@H](NC(=O)c1[nH]cnc1C(=O)N[C@@H](CCCCNC(=O)OC(C)(C)C)C(=O)OC(C)(C)C)C(=O)OC(C)(C)C | 3.89 µM (not active) |  |  |
| CCN(CC)c1ccc(NC(=O)CSc2ccsc2[N+](=O)[O-])c(C)c1 |  | 1.9 µM (active) |  |
| O=C(NCC1COc2ccccc2O1)C1C2C=CC3(CN(Cc4cccs4)C(=O)C13)O2 (stereo not drawn) |  | 7.96 µM (active) |  |
| N#CCOc1nc(N2CCCC2)nc(N2CCCC2)n1 | 14.3 µM (not active) |  |  |
| O=C(CN=C(S)N(Cc1ccccc1)Cc1cccs1)NCc1ccc(F)cc1 | 9.61 µM (not active) |  |  |
| COc1ccc(N2CCN(C(CNC(=O)C3CCCCC3)c3cccnc3)CC2)cc1 (stereo not drawn) |  |  | AC50 [3]: 7.08 µM (inconclusive); AC50 [4]: 0.355 µM (inconclusive); IC50 [5]: 27 µM (active) |
| Cc1c(NN=C2C(=O)NC(=S)NC2=O)c(=O)n(-c2ccccc2)n1C |  |  | IC50 [6]: 2.77 µM (active) |
| COC(=O)c1c(C)oc(C)c1S(=O)(=O)Nc1ccc(C(C)C)cc1 | 11.4 µM (not active) |  |  |
| Fc1ccc(CNc2nc(-c3ccccc3)nc3ccccc23)cc1 | 6.57 µM (not active) |  | EC50 [7]: > 300 µM (not active); EC50 [8]: > 30 µM (not active); EC50 [9]: 0.107 µM (active); IC50 [10]: 32.9 µM (active); EC50 [11]: > 300 µM (not active) |
| Nc1nnnn1CC(=O)N/N=C/c1cc([N+](=O)[O-])ccc1O |  |  | IC50 [6]: 3.13 µM (active) |
| COc1ccccc1/C=C/C=N/NC(=O)CCC1C(=O)NN=C1C (stereo not drawn) |  | 57.2 µM (active) |  |
| CCOc1cc(C(=O)N/N=C\c2cn(CC)nc2C)cc(OCC)c1OCC | > 50 µM (not active) |  |  |
| COc1cc(/C=N/Nc2ccccn2)ccc1O |  |  | IC50 [5]: 5.41 µM (active) |
| COc1cc(/C=N/NS(=O)(=O)c2ccc(Br)cc2)ccc1O |  |  | IC50 [5]: 19.4 µM (active); AC50 [12]: 1.7 µM (active) |
